Reference: US9150581B2, “Nicotinic receptor compounds” (priority 2011, dated 2015)

Experiments:
mice [1] = test: Hot-plate test (antinociception); format: in vivo, mouse; conditions: sc
Description: (§1) In the tail-flick method of D'Amour and Smith, (D'Amour, F. E.; Smith, D. L. J. Pharmacol. Exp. Ther. 1941, 72, 74-79), the tail is exposed to a heat lamp and the amount of time taken for the animal to move (flick) its tail away from the heat is recorded. […] Mice were placed into a 10-cm wide glass cylinder on a hot plate (Thermojust Apparatus) maintained at 55.0° C. Two control latencies at least 10 min apart were determined for each mouse. […] The reaction time was scored when the animal jumped or licked its paws. The mice were tested 5 min after subcutaneous (sc) injections of nicotinic ligands for the dose-response determination. Antinociceptive response was calculated as percentage of maximum possible effect (% MPE, where % MPE=[(test−control)/(maximum latency−control)×100]).

mice [2] = test: Spontaneous activity (photocell activity cages); format: in vivo, mouse; conditions: sc
Description: (§2) Interruptions of the photocell beams (two banks of eight cells each) were then recorded for the next 10 min. Data were expressed as number of photocell interruptions. Rectal temperature was measured by a thermistor probe (inserted 24 mm) and digital thermometer (Yellow Springs Instrument Co., Yellow Springs, Ohio). […] The difference in rectal temperature before and after treatment was calculated for each mouse. The ambient temperature of the laboratory varied from 21 to 24° C. from day to day.

mice [3] = test: Tail-flick test (antinociception); format: in vivo, mouse; conditions: sc
Description: as §1

mice [4] = test: Antagonism of nicotine antinociception, tail-flick; format: in vivo, mouse
Description: as §1
(§3) Nicotine was administered at a dose of 2.5 mg/kg, sc (an ED84 dose), and mice were tested 5 min later. ED50 and AD50 values with 95% confidence limits were determined.

α7 nAChR = α7 nAChR (Rattus norvegicus (Rat), UniProt Q05941); format: binding; conditions: read-out: α7 [125I]iodoMLA (Ki)
mice [5] = test: Antagonism of nicotine antinociception, hot-plate; format: in vivo, mouse; conditions: before nicotine 2.5 mg/kg sc
Description: as §1, §3

α4β2 nAChR = α4β2 nAChR (Rattus norvegicus (Rat), UniProt P09483+P12390); test: Inhibition of [3H]epibatidine binding at the α4β2 nAChR in male rat cerebral cortex; conditions: read-out: αβ [3H]Epibatidine (Ki)
mice [6] = test: Hypothermia (rectal temperature); format: in vivo, mouse; conditions: sc
Description: as §2

α7 nAChR, sequence (Q05941 23-502 limits assumed): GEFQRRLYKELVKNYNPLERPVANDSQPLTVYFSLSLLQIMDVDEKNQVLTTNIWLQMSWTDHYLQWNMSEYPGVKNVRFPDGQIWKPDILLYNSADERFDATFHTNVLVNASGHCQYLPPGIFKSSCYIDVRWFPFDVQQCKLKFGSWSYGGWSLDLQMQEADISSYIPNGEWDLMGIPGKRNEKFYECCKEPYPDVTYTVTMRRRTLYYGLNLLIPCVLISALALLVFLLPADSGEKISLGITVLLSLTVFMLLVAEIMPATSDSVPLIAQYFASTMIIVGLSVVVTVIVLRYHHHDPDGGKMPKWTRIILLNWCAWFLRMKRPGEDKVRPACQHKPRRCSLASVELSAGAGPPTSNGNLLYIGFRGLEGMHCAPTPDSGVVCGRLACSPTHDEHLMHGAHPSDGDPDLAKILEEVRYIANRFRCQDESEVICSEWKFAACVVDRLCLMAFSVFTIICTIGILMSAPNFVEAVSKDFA
α4β2 nAChR, sequence (P09483 31-630 limits assumed): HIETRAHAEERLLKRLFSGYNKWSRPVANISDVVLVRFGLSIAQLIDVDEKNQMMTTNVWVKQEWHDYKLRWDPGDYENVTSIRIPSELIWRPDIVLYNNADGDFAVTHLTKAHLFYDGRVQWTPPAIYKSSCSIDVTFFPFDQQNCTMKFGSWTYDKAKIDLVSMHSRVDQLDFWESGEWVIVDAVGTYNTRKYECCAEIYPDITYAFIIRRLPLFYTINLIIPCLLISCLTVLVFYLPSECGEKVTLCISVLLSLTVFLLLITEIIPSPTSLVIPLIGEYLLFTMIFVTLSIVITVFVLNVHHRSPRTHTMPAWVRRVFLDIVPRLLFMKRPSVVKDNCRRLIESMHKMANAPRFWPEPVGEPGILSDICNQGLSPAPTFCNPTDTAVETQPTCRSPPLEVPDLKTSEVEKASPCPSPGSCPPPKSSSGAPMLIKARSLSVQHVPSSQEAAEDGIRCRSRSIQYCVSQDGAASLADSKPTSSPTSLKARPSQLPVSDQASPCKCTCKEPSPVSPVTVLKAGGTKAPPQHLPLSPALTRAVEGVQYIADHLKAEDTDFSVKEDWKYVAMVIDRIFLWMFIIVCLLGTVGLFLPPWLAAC
α4β2 nAChR, sequence (P12390 25-500 limits assumed): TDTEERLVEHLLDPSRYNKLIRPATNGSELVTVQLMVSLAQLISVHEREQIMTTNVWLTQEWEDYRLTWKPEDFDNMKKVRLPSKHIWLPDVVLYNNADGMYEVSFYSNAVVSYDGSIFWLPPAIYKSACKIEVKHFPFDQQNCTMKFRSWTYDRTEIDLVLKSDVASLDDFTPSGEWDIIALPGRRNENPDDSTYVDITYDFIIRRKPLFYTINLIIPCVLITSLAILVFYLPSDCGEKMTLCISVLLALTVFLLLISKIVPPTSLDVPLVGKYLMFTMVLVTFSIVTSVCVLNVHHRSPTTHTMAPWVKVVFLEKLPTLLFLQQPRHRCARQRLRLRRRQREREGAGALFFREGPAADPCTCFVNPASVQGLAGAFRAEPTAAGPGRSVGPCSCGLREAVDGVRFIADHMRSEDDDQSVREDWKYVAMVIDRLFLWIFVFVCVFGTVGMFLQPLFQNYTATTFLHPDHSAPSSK

| Substance | ED50 Hot-Plate (mice [1]; tested 5 min after injection) [mg/kg] | ED50 Spontaneous Activity (mice [2]) [mg/kg] | ED50 Tail-Flick (mice [3]; tested 5 min after injection) [mg/kg] | Antagonism Tail-Flick, % at dose (mice [4]; @ 500 μg/kg, before nicotine 2.5 mg/kg sc) [% @ 500] | Ki (α7 nAChR) [nM] | Antagonism Hot-Plate, % at dose (mice [5]; @ 500 μg/kg) [% @] | Ki (α4β2 nAChR) [nM] | ED50 Hypothermia (mice [6]) [mg/kg] | Hot-Plate, % effect at dose (mice [1]; @ 10 mg/kg) [% @ 10] | Tail-Flick, % effect at dose (mice [3]; @ 10 mg/kg) [% @ 10] | AD50 Tail-Flick (mice [4]; mice pretreated sc 10 min before nicotine 2.5 mg/kg sc) [mg/kg] | Antagonism Hot-Plate, % at dose (mice [5]; @ 2000 μg/kg) [% @] |
| --- | --- | --- | --- | --- | --- | --- | --- | --- | --- | --- | --- | --- |
| 2-exo-2-Fluoro-3-(3′-benzamide)deschloroepibatidine Hydrochloride [RTI-7527-169] | 3.6 | 1 | 5.6 | 10 | 870 | 20 | 0.36 ± 0.088 | 1.7 | – | – | – | – |
| 2-exo-2-Fluoro-3-(4′-benzamide)deschloroepibatidine Hydrochloride [RTI-7527-168] | – | 3.5 | – | – | 1870 | – | 0.12 ± 0.021 | 4.2 | 60 | 16 | 0.009 | 1 |
